{"source": "patent US9572786B2", "about": "“Use of capsiate or dihydrocapsidate” (Catholic University Industry Academy Cooperation Foundation, priority 2007, dated 2017)", "key": {"COX-2": {"tested_on": "COX-2", "assay": "UV-induced COX-2 expression in mouse skin tissue, immunohistochemical staining", "type": "in vivo", "conditions": "hairless mouse; 200 μL of 1 mM topically; 4 times of UV irradiation", "description": "In order to confirm the in vitro experiment result performed on the human keratinocyte HaCaT cells in an animal model, experiment was carried out as follows using hairless mouse (SKH-1). Test groups were as follows: non-treated group—treated with acetone only without UV irradiation; test group A—treated with 200 μL of 1 mM capsiate dissolved in acetone every 24 hours without UV irradiation; control group—treated with UV and acetone; test group B—treated with UV and 200 μL of 1 mM capsiate dissolved in acetone every 24 hours (Unspecified conditions are the same as in Examples 5-7.).\nCapsiate was applied on the back of the mouse. 1 hour later, UV was irradiated at an intensity of 2.5 kJ/m^2. 1 hour later, capsiate was applied again at the same concentration in order to prevent rash which may occur immediately after UV irradiation. Thereafter, capsiate was applied every 24 hours and UV irradiation was carried out every other day at an intensity of 2.5 kJ/m^2 for 4 times. In order to investigate the change of tissue and intracellular mechanism (signaling), the mouse was euthanized 1 hour after the final UV irradiation. Skin tissue was taken from the back of the mouse and subjected to skin biopsy following observation.\nIn order to reconfirm this effect, immunohistochemical staining was carried out as follows. […]"}, "IL-6": {"tested_on": "IL-6", "assay": "UV-induced IL-6 mRNA in hairless mouse skin, RT-PCR", "type": "in vivo", "conditions": "200 μL of 1 mM topically 1 hour before UV 5 kJ/m^2 once, 6 hours later", "description": "In order to investigate the effect of capsiate on the production of IL-6 and TNF-α induced in skin tissue during inflammatory response, the inhibition ability of capsiate against the expression of the pro-inflammatory cytokines was evaluated in animal model as follows. Test groups were as follows: non-treated group—treated with acetone only without UV irradiation; test group A—treated with 200 μL of 1 mM capsiate dissolved in acetone without UV irradiation; UV group—treated with acetone and UV; test group B—treated with 200 μL of 1 mM capsiate dissolved in acetone followed by UV irradiation 1 hour later.\nTo this end, acetone and capsiate were treated prior to UV irradiation. After treating with UV once at an intensity of 5 kJ/m^2, hairless mouse was euthanized 6 hours later. mRNA was extracted from the mouse tissue obtained by skin biopsy and RT-PCR was carried out as follows. For RNA extraction from the tissue, each mouse tissue obtained by skin biopsy was quickly frozen in liquid nitrogen and ground finely using a mortar. RNA was extracted from the mouse tissue using Trizol (Invitrogen, USA), and PCR (PTC-225 Peltier thermal cycler, MJ Research, USA) was carried out using it as template and using a commercial kit (reverse transcription system, Qiagen, USA). As a result, cDNA was prepared from each group. […]"}, "P38": {"tested_on": "P38", "assay": "MAPK signaling in mouse skin tissue, Western blotting: P38", "type": "in vivo", "conditions": "hairless mouse; UV+CPT vs UV with acetone only", "description": "In order to investigate the intracellular mechanism (signaling) related with the inhibition of COX-2 expression by capsiate, Western blotting was carried out for MAPK signaling-related proteins (ERK, p-ERK, p38, p-p38 and JNK, p-JNK) as in Example 2-2, using proteins isolated from the mouse skin tissue."}, "TNF-α": {"tested_on": "TNF-α", "assay": "UV-induced pro-inflammatory cytokine mRNA, RT-PCR: TNF-α", "type": "cell-based, human", "conditions": "HaCaT cells; 10, 25, 50 μM; UV 100 J/m^2; 4 hours", "description": "1×10^6 HaCaT cells were placed on a 100 mm Petri dish and cultured for 24 hours in DMEM containing 10% FBS. Subsequently, the cells were cultured for 24 hours in DMEM containing 1% FBS until starvation. Then, after treating with capsiate at different concentrations (10 μM, 25 μM, 50 μM) for 30 minutes, followed by washing 3 times with PBS, UV was irradiated at an intensity of 100 J/m^2 to induce the production of cytokines. Immediately after the UV irradiation, the cells were washed again with PBS and further cultured for 4 hours in DMEM containing 1% FBS, which was treated with capsiate at the same concentration as in the pre-treatment.\nThen, the degree of mRNA expression for IL-6, IL-8 and TNF-α induced mainly in the skin by the UV irradiation was evaluated by RT-PCR in order to measure the inhibition effect against the pro-inflammatory cytokines.\nRNAs were extracted from the cells of each test group using Trizol (Invitrogen, USA) and used as template for PCR (PTC-225 Peltier thermal cycler, MJ Research, USA) to prepare cDNAs for each test group. Using the resultant cDNAs as template, the degree of mRNA expression for IL-6, IL-8 and TNF-α was measured by RT-PCR (Roter Gene 6000 series, Corbett Research, Australia) using commercial IL-6, IL-8 and TNF-α primers. […]"}, "PECAM-1 (CD31)": {"tested_on": "PECAM-1 (CD31)", "assay": "PECAM-1 expression in mouse skin, immunohistochemical staining", "type": "in vivo", "conditions": "mouse skin tissue of Example 5; treated prior to UV irradiation", "description": "In order to investigate the effect of capsiate on various intracellular angiogenesis-related expression factors, the inhibition effect of capsiate on angiogenesis factors induced by UV was evaluated using the mouse tissue of Example 5.\nTo investigate this effect, the paraffin-embedded tissue prepared as in Example 6 was processed in the same manner as Example 6, treated with PECAM-1 antibody (1:100, BD Pharmingen, USA) on a slide, treated with biotinylated secondary antibody (DAKO code K0675; DAKO Corp., USA) for 30 minutes, and washed 3 times. After treatment with streptavidin-peroxidase (DAKO code K0675, DAKO Corp., USA) for 30 minutes, followed by washing 3 times with PBS, the tissue was stained using DAB (DAKO Corp., USA) for confirmation of the level of PECAM-1 expression."}}}
{"smiles": "COc1cc(COC(=O)CCCC/C=C/C(C)C)ccc1O", "note": "[capsiate]", "values": [{"measurement": "UV-induced increase of COX-2 in mouse skin tissue (immunohistochemical staining)", "setting": "COX-2", "value": "effectively inhibited"}, {"measurement": "UV-induced expression of IL-6 (mRNA) in skin tissue", "setting": "IL-6", "value": "decrease"}, {"measurement": "P38 (phosphorylation) in mouse skin tissue", "setting": "P38", "value": "no significant difference"}, {"measurement": "expression of TNF-α (mRNA) increased by UV irradiation", "setting": "TNF-α", "value": "significantly decreases"}, {"measurement": "level of PECAM-1 expression", "setting": "PECAM-1 (CD31)", "value": "significantly lower"}]}
